Reference: PubChem BioAssay (NCI)
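Where inhibition never reached the appropriate level, the endpoint shown equals the highest concentration tested. Otherwise, values were interpolated linearly from a five-concentration, 48-hour dose response in 96-well plates. TGI is the concentration that stops growth completely.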

Legend:
Experiment in all cases: NCI-60 cell line screen, 48 h
SK-MEL-2 melanoma = tested on: SK-MEL-2 melanoma
SK-OV-3 ovarian = tested on: SK-OV-3 ovarian
SF-295 CNS = tested on: SF-295 CNS
CCRF-CEM leukemia = tested on: CCRF-CEM leukemia
LXFL 529 NSCLC = tested on: LXFL 529 NSCLC
OVCAR-8 ovarian = tested on: OVCAR-8 ovarian
MALME-3M melanoma = tested on: MALME-3M melanoma
BT-549 breast = tested on: BT-549 breast
NCI-H522 lung = tested on: NCI-H522 lung
RPMI-8226 leukemia = tested on: RPMI-8226 leukemia
MOLT-4 leukemia = tested on: MOLT-4 leukemia
DMS 114 small cell lung = tested on: DMS 114 small cell lung
SNB-19 CNS = tested on: SNB-19 CNS
SNB-78 CNS = tested on: SNB-78 CNS
LOX IMVI melanoma = tested on: LOX IMVI melanoma
CAKI-1 renal = tested on: CAKI-1 renal
U251 CNS = tested on: U251 CNS
KM20L2 colon = tested on: KM20L2 colon
M14 melanoma = tested on: M14 melanoma
NCI-H226 lung = tested on: NCI-H226 lung
HCT-116 colon = tested on: HCT-116 colon
SK-MEL-28 melanoma = tested on: SK-MEL-28 melanoma
MCF7 breast = tested on: MCF7 breast
A498 renal = tested on: A498 renal
TK-10 renal = tested on: TK-10 renal
SR leukemia = tested on: SR leukemia
HOP-62 NSCLC = tested on: HOP-62 NSCLC
HCT-15 colon = tested on: HCT-15 colon
HS 578T breast = tested on: HS 578T breast
XF 498 CNS = tested on: XF 498 CNS
A549 NSCLC = tested on: A549 NSCLC
DU-145 prostate = tested on: DU-145 prostate
SNB-75 CNS = tested on: SNB-75 CNS
HOP-92 NSCLC = tested on: HOP-92 NSCLC
ACHN renal = tested on: ACHN renal
HCC-2998 colon = tested on: HCC-2998 colon
HT29 colon = tested on: HT29 colon
M19-MEL melanoma = tested on: M19-MEL melanoma
NCI-H23 lung = tested on: NCI-H23 lung
EKVX NSCLC = tested on: EKVX NSCLC
UACC-257 melanoma = tested on: UACC-257 melanoma
RXF 393 renal = tested on: RXF 393 renal
NCI-H460 lung = tested on: NCI-H460 lung
KM12 colon = tested on: KM12 colon
DMS 273 small cell lung = tested on: DMS 273 small cell lung
SF-268 CNS = tested on: SF-268 CNS
T-47D breast = tested on: T-47D breast
COLO 205 colon = tested on: COLO 205 colon
OVCAR-4 ovarian = tested on: OVCAR-4 ovarian
OVCAR-5 ovarian = tested on: OVCAR-5 ovarian
DLD-1 colon = tested on: DLD-1 colon
UO-31 renal = tested on: UO-31 renal
SF-539 CNS = tested on: SF-539 CNS
SW-620 colon = tested on: SW-620 colon
SN12C renal = tested on: SN12C renal
786-0 renal = tested on: 786-0 renal
UACC-62 melanoma = tested on: UACC-62 melanoma
SK-MEL-5 melanoma = tested on: SK-MEL-5 melanoma
K-562 leukemia = tested on: K-562 leukemia
HL-60(TB) leukemia = tested on: HL-60(TB) leukemia
OVCAR-3 ovarian = tested on: OVCAR-3 ovarian
IGROV1 ovarian = tested on: IGROV1 ovarian
MDA-MB-435 = tested on: MDA-MB-435

## O=C(Nc1cccc(C(F)(F)F)c1)C(=O)C(C(=O)c1ccc2ccccc2c1)C1OC(=O)c2ccccc21 (stereo not drawn)
SK-MEL-2 melanoma
  TGI: 15.8 µM
SK-OV-3 ovarian
  TGI: > 100 µM
SF-295 CNS
  TGI: 23.4 µM
CCRF-CEM leukemia
  TGI: 29.1 µM
LXFL 529 NSCLC
  TGI: 20.8 µM
OVCAR-8 ovarian
  TGI: 35.6 µM
MALME-3M melanoma
  TGI: 17 µM
BT-549 breast
  TGI: 93.9 µM
NCI-H522 lung
  TGI: 25.6 µM
RPMI-8226 leukemia
  TGI: 60.6 µM
MOLT-4 leukemia
  TGI: 11.1 µM
DMS 114 small cell lung
  TGI: 17.1 µM
SNB-19 CNS
  TGI: 25.8 µM
SNB-78 CNS
  TGI: 26.6 µM
LOX IMVI melanoma
  TGI: 20.7 µM
CAKI-1 renal
  TGI: > 100 µM
U251 CNS
  TGI: 17.4 µM
KM20L2 colon
  TGI: 33.5 µM
M14 melanoma
  TGI: 34.4 µM
NCI-H226 lung
  TGI: 11.5 µM
HCT-116 colon
  TGI: 21.2 µM
SK-MEL-28 melanoma
  TGI: 15.7 µM
MCF7 breast
  TGI: 45.8 µM
A498 renal
  TGI: 20.3 µM
TK-10 renal
  TGI: 48 µM
SR leukemia
  TGI: 16 µM
HOP-62 NSCLC
  TGI: 36.8 µM
HCT-15 colon
  TGI: 32.2 µM
HS 578T breast
  TGI: 45.2 µM
XF 498 CNS
  TGI: 12.3 µM
A549 NSCLC
  TGI: 78.3 µM
DU-145 prostate
  TGI: 81.2 µM
SNB-75 CNS
  TGI: 30.6 µM
HOP-92 NSCLC
  TGI: > 100 µM
ACHN renal
  TGI: 73.5 µM
HCC-2998 colon
  TGI: 23.5 µM
HT29 colon
  TGI: 38.2 µM
M19-MEL melanoma
  TGI: 31.1 µM
NCI-H23 lung
  TGI: 17.7 µM
EKVX NSCLC
  TGI: 27.5 µM
UACC-257 melanoma
  TGI: 15.9 µM
RXF 393 renal
  TGI: 11.9 µM
NCI-H460 lung
  TGI: 36.3 µM
KM12 colon
  TGI: 29 µM
DMS 273 small cell lung
  TGI: > 100 µM
SF-268 CNS
  TGI: 49.1 µM
T-47D breast
  TGI: 84.8 µM
COLO 205 colon
  TGI: 38.9 µM
OVCAR-4 ovarian
  TGI: > 42.7 µM
OVCAR-5 ovarian
  TGI: 31.5 µM
DLD-1 colon
  TGI: 23.4 µM
UO-31 renal
  TGI: 20.6 µM
SF-539 CNS
  TGI: 10.2 µM
SW-620 colon
  TGI: 37 µM
SN12C renal
  TGI: 36.9 µM
786-0 renal
  TGI: 15.9 µM
UACC-62 melanoma
  TGI: 19.1 µM
SK-MEL-5 melanoma
  TGI: 24.4 µM
K-562 leukemia
  TGI: > 73.7 µM
HL-60(TB) leukemia
  TGI: 40.9 µM
OVCAR-3 ovarian
  TGI: 55.6 µM
IGROV1 ovarian
  TGI: 71.6 µM
MDA-MB-435
  TGI: > 100 µM
